Measurements from ChEMBL document CHEMBL1201861, “Genomics of Drug Sensitity in Cancer screening data, Wellcome Trust Sanger Institute”.

Assays:
[1] = test system: COR-L279; assay: SANGER: Inhibition of human COR-L279 cell growth in a cell viability assay.; format: functional, cell-based
[2] = test system: CP66-MEL; assay: cells; format: functional, cell-based, Homo sapiens; conditions: Homo sapiens, CP66-MEL;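 also: growth inhibition of CP66-MEL cells determined in a cell viability assay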
Description: SANGER: Inhibition of human CP66-MEL cell growth in a cell viability assay.

[3] = test system: CPC-N; assay: cells; format: functional, cell-based; conditions: Homo sapiens;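 also: growth inhibition of CPC-N cells, with a cell viability assay as the readout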
Description: SANGER: Inhibition of human CPC-N cell growth in a cell viability assay.

[4] = test system: GDM-1; assay: cells; format: functional, cell-based; conditions: Homo sapiens;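 also: cell viability readout used to measure growth inhibition of human GDM-1 cells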
Description: SANGER: Inhibition of human GDM-1 cell growth in a cell viability assay.

[5] = test system: HCC 2998; assay: cells; format: functional, cell-based, Homo sapiens; conditions: Homo sapiens, HCC 2998;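 also: growth inhibition of human HCC2998 cells, measured with a cell viability read-out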
Description: SANGER: Inhibition of human HCC2998 cell growth in a cell viability assay.

[6] = test system: JVM-3; assay: cells; format: functional, cell-based; conditions: Homo sapiens;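 also: growth inhibition of human JVM-3 cells, read out with a cell viability assay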
Description: SANGER: Inhibition of human JVM-3 cell growth in a cell viability assay.

[7] = test system: KARPAS-422; assay: cells; format: functional, cell-based; conditions: Homo sapiens
Description: SANGER: Inhibition of human KARPAS-422 cell growth in a cell viability assay.

[8] = test system: L-540; assay: cells; format: functional, cell-based; conditions: Homo sapiens;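 also: growth inhibition of the human L-540 cell line, read out with a viability assay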
Description: SANGER: Inhibition of human L-540 cell growth in a cell viability assay.

[9] = test system: LAMA-84; assay: cells; format: functional, cell-based; conditions: Homo sapiens;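 also: growth inhibition of LAMA-84 cells, read out with a cell viability assay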
Description: SANGER: Inhibition of human LAMA-84 cell growth in a cell viability assay.

[10] = test system: LB831-BLC; assay: cells; format: functional, cell-based, Homo sapiens; conditions: Homo sapiens, LB831-BLC;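 also: growth inhibition of LB831-BLC cells, read out with a cell viability assay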
Description: SANGER: Inhibition of human LB831-BLC cell growth in a cell viability assay.

[11] = test system: LC4-1; assay: cells; format: functional, cell-based; conditions: Homo sapiens;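 also: growth inhibition of LC4-1 cells, read out with a cell viability assay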
Description: SANGER: Inhibition of human LC4-1 cell growth in a cell viability assay.

[12] = test system: LU-165; assay: cells; format: functional, cell-based; conditions: Homo sapiens
Description: SANGER: Inhibition of human LU-165 cell growth in a cell viability assay.

[13] = test system: LXF-289 cell line; assay: cells; format: functional, cell-based, Homo sapiens; conditions: Homo sapiens, LXF-289
Description: SANGER: Inhibition of human LXF-289 cell growth in a cell viability assay.

[14] = test system: MONO-MAC-6; assay: cells; format: functional, cell-based; conditions: Homo sapiens;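 also: cell viability assay measuring growth inhibition of human MONO-MAC-6 cells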
Description: SANGER: Inhibition of human MONO-MAC-6 cell growth in a cell viability assay.

[15] = test system: NCI-H1092; assay: cells; format: functional, cell-based; conditions: Homo sapiens
Description: SANGER: Inhibition of human NCI-H1092 cell growth in a cell viability assay.

[16] = test system: NCI-H1436; assay: cells; format: functional, cell-based; conditions: Homo sapiens;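 also: growth suppression of human NCI-H1436 cells, determined with a cell viability readout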
Description: SANGER: Inhibition of human NCI-H1436 cell growth in a cell viability assay.

[17] = test system: NCI-H1963; assay: cells; format: functional, cell-based; conditions: Homo sapiens;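 also: cell growth inhibition of the human line, determined with a cell viability assay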
Description: SANGER: Inhibition of human NCI-H1963 cell growth in a cell viability assay.

[18] = test system: NCI-H2196; assay: cells; format: functional, cell-based; conditions: Homo sapiens;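 also: cell viability assay used as the readout of growth inhibition in NCI-H2196 cells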
Description: SANGER: Inhibition of human NCI-H2196 cell growth in a cell viability assay.

[19] = test system: NCI-H716; assay: cells; format: functional, cell-based; conditions: Homo sapiens;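 also: growth inhibition of human NCI-H716 cells, measured by a cell viability assay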
Description: SANGER: Inhibition of human NCI-H716 cell growth in a cell viability assay.

[20] = test system: NCI-H889; assay: cells; format: functional, cell-based; conditions: Homo sapiens;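 also: cell growth inhibition of the cell line, read out with a viability assay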
Description: SANGER: Inhibition of human NCI-H889 cell growth in a cell viability assay.

[21] = test system: OPM-2; assay: cells; format: functional, cell-based; conditions: Homo sapiens;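 also: growth of OPM-2 cells measured with a viability assay, IC50 for suppression of proliferation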
Description: SANGER: Inhibition of human OPM-2 cell growth in a cell viability assay.

[22] = test system: P31-FUJ; assay: cells; format: functional, cell-based; conditions: Homo sapiens;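 also: growth inhibition of P31-FUJ cells, read out with a viability assay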
Description: SANGER: Inhibition of human P31-FUJ cell growth in a cell viability assay.

[23] = test system: RL; assay: cells; format: functional, cell-based; conditions: Homo sapiens
Description: SANGER: Inhibition of human RL cell growth in a cell viability assay.

[24] = test system: RL95-2; assay: cells; format: functional, cell-based; conditions: Homo sapiens;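 also: RL95-2 growth inhibition determined through a cell viability readout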
Description: SANGER: Inhibition of human RL95-2 cell growth in a cell viability assay.

[25] = test system: SF-539; assay: cells; format: functional, cell-based, Homo sapiens; conditions: Homo sapiens, SF-539;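 also: Read-out is a cell viability assay, with IC50 reflecting inhibition of cell growth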
Description: SANGER: Inhibition of human SF539 cell growth in a cell viability assay.

[26] = test system: SIMA; assay: cells; format: functional, cell-based, Homo sapiens; conditions: Homo sapiens, SIMA;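 also: growth inhibition of SIMA cells, measured with a cell viability readout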
Description: SANGER: Inhibition of human SIMA cell growth in a cell viability assay.

[27] = test system: SUP-T1; assay: cells; format: functional, cell-based; conditions: Homo sapiens;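 also: growth inhibition of human SUP-T1 cells, read out as cell viability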
Description: SANGER: Inhibition of human SUP-T1 cell growth in a cell viability assay.

[28] = test system: TALL-1; assay: cells; format: functional, cell-based; conditions: Homo sapiens;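 also: growth inhibition of cultured human TALL-1 cells, read out by a cell viability assay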
Description: SANGER: Inhibition of human TALL-1 cell growth in a cell viability assay.

[29] = test system: A3-KAW; assay: cells; format: functional, cell-based; conditions: Homo sapiens;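 also: growth inhibition of human A3-KAW cells, read out with a cell viability assay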
Description: SANGER: Inhibition of human A3-KAW cell growth in a cell viability assay.

[30] = test system: BC-3; assay: cells; format: functional, cell-based; conditions: Homo sapiens;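 also: cell viability assay measuring growth inhibition of human BC-3 cells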
Description: SANGER: Inhibition of human BC-3 cell growth in a cell viability assay.

[31] = test system: BL-41; assay: cells; format: functional, cell-based; conditions: Homo sapiens;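 also: growth inhibition of human BL-41 cells, read out with a cell viability assay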
Description: SANGER: Inhibition of human BL-41 cell growth in a cell viability assay.

[32] = test system: BL-70; assay: SANGER: Inhibition of human BL-70 cell growth in a cell viability assay.; format: functional, cell-based
[33] = test system: C2BBe1; assay: cells; format: functional, cell-based, Homo sapiens; conditions: Homo sapiens, C2BBe1;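 also: growth inhibition of C2BBe1 cells, read out through a viability assay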
Description: SANGER: Inhibition of human C2BBe1 cell growth in a cell viability assay.

[34] = test system: TE-441-T; assay: cells; format: functional, cell-based; conditions: Homo sapiens
Description: SANGER: Inhibition of human TE-441-T cell growth in a cell viability assay.

[35] = test system: TE-9; assay: cells; format: functional, cell-based, Homo sapiens; conditions: Homo sapiens, TE-9;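 also: cell growth inhibition, measured with a cell viability readout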
Description: SANGER: Inhibition of human TE-9 cell growth in a cell viability assay.

[36] = test system: U-698-M; assay: cells; format: functional, cell-based; conditions: Homo sapiens
Description: SANGER: Inhibition of human U-698-M cell growth in a cell viability assay.

[37] = test system: U-87 MG; assay: cells; format: functional, cell-based, U-87MG ATCC; conditions: Homo sapiens
Description: SANGER: Inhibition of human U-87-MG cell growth in a cell viability assay.

[38] = test system: UACC-812; assay: cells; format: functional, cell-based; conditions: Homo sapiens
Description: SANGER: Inhibition of human UACC-812 cell growth in a cell viability assay.

[39] = test system: YT; assay: cells; format: functional, cell-based; conditions: Homo sapiens
Description: SANGER: Inhibition of human YT cell growth in a cell viability assay.

Structure (SMILES)	IC50 [1] [µM]	IC50 [2] [µM]	IC50 [3] [µM]	IC50 [4] [µM]	IC50 [6] [µM]	IC50 [7] [µM]	IC50 [8] [µM]	IC50 [9] [µM]	IC50 [10] [µM]	IC50 [11] [µM]	IC50 [12] [µM]	IC50 [13] [µM]	IC50 [14] [µM]	IC50 [15] [µM]	IC50 [16] [µM]	IC50 [17] [µM]	IC50 [18] [µM]	IC50 [19] [µM]	IC50 [20] [µM]	IC50 [21] [µM]	further results
CC1=C2C[C@H]3[C@@H](CC=C4C[C@@H](O)CC[C@@]43C)[C@@H]2CC[C@]12O[C@@H]1C[C@H](C)CN[C@H]1[C@H]2C [CYCLOPAMINE]	> 16	> 16	> 16	> 16	> 16	> 16	> 16	> 16	> 16	> 16	> 16	> 16	> 16	> 16	> 16	> 16	> 16	> 16	> 16	> 16	IC50 [5]: > 16 µM; IC50 [22]: > 16 µM; IC50 [23]: > 16 µM; IC50 [24]: > 16 µM; IC50 [25]: > 16 µM; IC50 [26]: > 16 µM; IC50 [27]: > 16 µM; IC50 [28]: > 16 µM; IC50 [29]: > 16 µM; IC50 [30]: > 16 µM; IC50 [31]: > 16 µM; IC50 [32]: > 16 µM; IC50 [33]: > 16 µM; IC50 [34]: > 16 µM; IC50 [35]: > 16 µM; IC50 [36]: > 16 µM; IC50 [37]: > 16 µM; IC50 [38]: > 16 µM; IC50 [39]: > 16 µM
CNC(=O)c1cc(Oc2ccc(NC(=O)Nc3ccc(Cl)c(C(F)(F)F)c3)cc2)ccn1 [SORAFENIB]	> 4	> 4	> 4	0.907	> 4	> 4	2.76	1.38	> 4	> 4	> 4	> 4	0.00418	> 4	1.22	> 4	> 4	> 4	> 4	> 4	IC50 [5]: 0.888 µM; IC50 [22]: > 4 µM; IC50 [23]: > 4 µM; IC50 [24]: > 4 µM; IC50 [25]: > 4 µM; IC50 [26]: > 4 µM; IC50 [27]: > 4 µM; IC50 [28]: > 4 µM; IC50 [29]: 1.88 µM; IC50 [30]: > 4 µM; IC50 [31]: > 4 µM; IC50 [32]: > 4 µM; IC50 [33]: > 4 µM; IC50 [34]: > 4 µM; IC50 [35]: > 4 µM; IC50 [36]: > 4 µM; IC50 [37]: > 4 µM; IC50 [38]: > 4 µM; IC50 [39]: > 4 µM
O=C(/C=C/c1ccccc1)NC(NC(=S)Nc1cccc2cccnc12)C(Cl)(Cl)Cl (centres undefined) [SALUBRINAL]	> 16	> 16	> 16	> 16	> 16	> 16	16	15.7	> 16	> 16	> 16	11.2	10.5	> 16	> 16	> 16	> 16	> 16	> 16	> 16	IC50 [5]: > 16 µM; IC50 [22]: > 16 µM; IC50 [23]: > 16 µM; IC50 [24]: > 16 µM; IC50 [25]: > 16 µM; IC50 [26]: > 16 µM; IC50 [27]: > 16 µM; IC50 [28]: > 16 µM; IC50 [29]: 8.43 µM; IC50 [30]: 14.8 µM; IC50 [31]: 9.78 µM; IC50 [32]: > 16 µM; IC50 [33]: > 16 µM; IC50 [34]: > 16 µM; IC50 [35]: > 16 µM; IC50 [36]: > 16 µM; IC50 [37]: > 16 µM; IC50 [38]: > 16 µM; IC50 [39]: > 16 µM
CS(=O)(=O)CCNCc1ccc(-c2ccc3ncnc(Nc4ccc(OCc5cccc(F)c5)c(Cl)c4)c3c2)o1 [LAPATINIB]	> 2	> 2	> 2	> 2	> 2	> 2	> 2	> 2	> 2	> 2	> 2	> 2	> 2	> 2	> 2	> 2	> 2	> 2	> 2	> 2	IC50 [5]: > 2 µM; IC50 [22]: > 2 µM; IC50 [23]: > 2 µM; IC50 [24]: > 2 µM; IC50 [25]: > 2 µM; IC50 [26]: > 2 µM; IC50 [27]: > 2 µM; IC50 [28]: > 2 µM; IC50 [29]: > 2 µM; IC50 [30]: > 2 µM; IC50 [31]: > 2 µM; IC50 [32]: > 2 µM; IC50 [33]: > 2 µM; IC50 [34]: > 2 µM; IC50 [35]: 0.745 µM; IC50 [36]: > 2 µM; IC50 [37]: > 2 µM; IC50 [38]: > 2 µM; IC50 [39]: > 2 µM
CN1CCN(CCOc2cc(OC3CCOCC3)c3c(Nc4c(Cl)ccc5c4OCO5)ncnc3c2)CC1 [SARACATINIB]	> 2	> 2	> 2	> 2	> 2	> 2	> 2	0.16	> 2	> 2	> 2	> 2	> 2	> 2	0.79	> 2	> 2	> 2	> 2	> 2	IC50 [22]: > 2 µM; IC50 [23]: > 2 µM; IC50 [24]: 1.67 µM; IC50 [25]: > 2 µM; IC50 [26]: > 2 µM; IC50 [27]: > 2 µM; IC50 [28]: > 2 µM; IC50 [29]: > 2 µM; IC50 [30]: > 2 µM; IC50 [31]: > 2 µM; IC50 [32]: > 2 µM; IC50 [33]: 1.21 µM; IC50 [34]: > 2 µM; IC50 [35]: > 2 µM; IC50 [36]: > 2 µM; IC50 [37]: > 2 µM; IC50 [38]: > 2 µM; IC50 [39]: > 2 µM
